The source of these data is ChEMBL document CHEMBL2057161, “Synthesis and evaluation of nitric oxide-releasing DDB derivatives as potential Pgp-mediated MDR reversal agents in MCF-7/Adr cells” (Bioorg Med Chem Lett, 2012).

In general, IC50 refers to the concentration that inhibits the measured activity by half. A high value points to weaker potency in that assay.

Structures are written as SMILES. The source made the active and inactive calls. No cut-off for these calls is given here.

One data set concerns HepG2. Put plainly: Antiproliferative activity against human HepG2 cells after 48 hrs by MTT assay. The data set is classed as functional, cell-based. The note with it: HepG2, 48 h.
The next data set relates to MCF7. Put plainly: Antiproliferative activity against human MCF7 up to 25 uM cells after 48 hrs by MTT assay. The data set is classed as functional, cell-based.
The target of data set [1] is T1, ATP-dependent translocase ABCB1 (Homo sapiens, UniProt P08183). The data set is described as follows: Inhibition of P-glycoprotein in human MCF7 assessed as increase in doxorubicin accumulation at 25 uM incubated for 1.5 hrs prior to doxorubicin treatment measured after 1.5 hrs by HPLC analysis. As to conditions: mcf7, 1.5 h.
T1 sequence (P08183 whole entry): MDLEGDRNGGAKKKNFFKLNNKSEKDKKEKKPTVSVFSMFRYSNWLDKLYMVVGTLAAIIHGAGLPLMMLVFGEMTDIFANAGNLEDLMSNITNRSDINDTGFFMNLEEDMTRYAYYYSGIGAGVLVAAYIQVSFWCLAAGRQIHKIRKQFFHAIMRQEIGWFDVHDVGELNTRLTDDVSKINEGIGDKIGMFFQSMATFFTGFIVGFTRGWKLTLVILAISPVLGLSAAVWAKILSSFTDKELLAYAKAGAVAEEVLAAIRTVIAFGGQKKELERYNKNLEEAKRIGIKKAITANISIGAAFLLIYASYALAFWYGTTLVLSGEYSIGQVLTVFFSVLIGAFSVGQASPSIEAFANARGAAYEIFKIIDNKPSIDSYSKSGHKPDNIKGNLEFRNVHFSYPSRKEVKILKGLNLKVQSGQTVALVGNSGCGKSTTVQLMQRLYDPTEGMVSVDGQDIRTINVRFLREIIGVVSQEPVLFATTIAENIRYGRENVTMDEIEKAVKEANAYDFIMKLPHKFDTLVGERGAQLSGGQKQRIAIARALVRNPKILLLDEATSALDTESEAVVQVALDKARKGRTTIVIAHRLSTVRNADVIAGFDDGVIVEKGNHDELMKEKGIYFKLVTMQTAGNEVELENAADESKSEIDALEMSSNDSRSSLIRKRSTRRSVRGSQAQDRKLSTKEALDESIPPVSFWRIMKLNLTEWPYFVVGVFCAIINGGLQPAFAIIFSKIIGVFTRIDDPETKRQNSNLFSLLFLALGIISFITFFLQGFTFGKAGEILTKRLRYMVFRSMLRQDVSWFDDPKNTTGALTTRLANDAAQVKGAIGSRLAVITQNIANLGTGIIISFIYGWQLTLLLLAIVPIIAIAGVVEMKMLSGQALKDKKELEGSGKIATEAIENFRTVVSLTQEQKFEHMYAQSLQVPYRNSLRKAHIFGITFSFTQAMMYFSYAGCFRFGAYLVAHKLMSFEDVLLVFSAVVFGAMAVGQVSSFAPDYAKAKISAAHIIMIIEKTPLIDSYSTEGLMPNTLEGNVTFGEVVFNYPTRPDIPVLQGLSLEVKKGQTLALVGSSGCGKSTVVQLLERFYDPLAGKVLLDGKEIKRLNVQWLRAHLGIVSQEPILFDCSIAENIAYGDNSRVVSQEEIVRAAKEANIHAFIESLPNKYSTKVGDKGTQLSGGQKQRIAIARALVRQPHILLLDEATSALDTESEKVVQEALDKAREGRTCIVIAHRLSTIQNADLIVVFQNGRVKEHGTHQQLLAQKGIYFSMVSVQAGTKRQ
Data set [2] has as its target T1, ATP-dependent translocase ABCB1. The data set is described as follows: Inhibition of P-glycoprotein in human MCF7/ADR cells assessed as potentiation of doxorubicin antiproliferative activity after 48 hrs by MTT assay. The data set is classed as cell-based. As to conditions: nci/adr-res.
Data set [3] shares this target. The data set is described as follows: Inhibition of P-glycoprotein in human MCF7 assessed as increase in doxorubicin accumulation at 25 uM incubated for 1.5 hrs prior to doxorubicin treatment measured after 1.5 hrs by HPLC analysis in presence of hemoglobin. As to conditions: mcf7, 1.5 h.
Data set [4] shares this target. Put plainly: Inhibition of P-glycoprotein overexpressed in human Caco2 cells assessed as increase in digoxin permeability at 25 uM incubated for 90 mins prior to digoxin treatment measured after 90 mins by LC/MS/MS analysis. The note with it: caco-2, 1.5 h. The data set is classed as cell-based. (Caco-2 cells form a polarised layer with tight junctions and transporters.)

For data set [5] the target is unchanged. Put plainly: Inhibition of P-glycoprotein overexpressed in human MCF7/ADR cells assessed as increase in doxorubicin accumulation at 25 uM incubated for 1.5 hrs prior to doxorubicin treatment measured after 1.5 hrs by HPLC analysis. The data set is classed as cell-based. The note with it: nci/adr-res.
Data set [6] shares this target. The data set is described as follows: Inhibition of P-glycoprotein overexpressed in human Caco2 cells assessed as increase in digoxin accumulation at 5 to 25 uM incubated for 1.5 hrs prior to digoxin treatment measured after 1.5 hrs by LC/MS/MS analysis in presence of hemoglobin. The data set is classed as cell-based. The note with it: caco-2, 1.5 h.
The target is the same in data set [7]. Put plainly: Inhibition of P-glycoprotein overexpressed in human MCF7/ADR cells assessed as increase in doxorubicin accumulation at 25 uM incubated for 1.5 hrs prior to doxorubicin treatment measured after 1.5 hrs by HPLC analysis in presence of hemoglobin. The data set is classed as cell-based. The note with it: nci/adr-res.
Data set [8] has as its system NCI/ADR-RES. The data set is described as follows: Induction of nitric oxide release in human MCF7/ADR cells at 25 uM by Griess method. The data set is classed as functional, cell-based. In general terms: The Griess reaction detects nitrite, a stable product of nitric oxide.
The nature of data set [9]: Downregulation of doxorubicin-induced P-glycoprotein expression in human MCF7/ADR cells at 25 uM after 48 hrs by Western blot analysis. The data set is classed as functional, cell-based. The note with it: NCI/ADR-RES. A general note: A western blot detects proteins with antibodies after separation by electrophoresis.
Data set [10] concerns the target T1, ATP-dependent translocase ABCB1. Put plainly: Inhibition of P-glycoprotein overexpressed in human Caco2 cells assessed as decrease in digoxin efflux at 25 uM incubated for 90 mins prior to digoxin treatment measured after 90 mins by LC/MS/MS analysis. As to conditions: caco-2, 1.5 h. The data set is classed as cell-based.
Data set [11] relates to NCI/ADR-RES. Put plainly: Antiproliferative activity against human MCF7/ADR up to 25 uM cells after 48 hrs by MTT assay. The data set is classed as functional, cell-based.

Molecule `COC(=O)c1cc(OC)c2c(c1-c1c(C(=O)NCCC(=O)NCCOc3no[n+]([O-])c3S(=O)(=O)c3ccccc3)cc(OC)c3c1OCO3)OCO2` came in with a half-inhibitory concentration (IC50) in the data set on HepG2 of 1250 nM.
In the case of `COC(=O)c1cc(OC)c2c(c1-c1c(C(=O)N[C@@H](C)C(=O)OCCCCOc3no[n+]([O-])c3S(=O)(=O)c3ccccc3)cc(OC)c3c1OCO3)OCO2`, the result in the data set on MCF7 and with NCI/ADR-RES [11] was inactive. The “inhibition (INH)” value in [1] is “Not Active”; in data set [2], “Dose-dependent effect”; in data set [3], “Not Active”; in data set [4] it was “Active”; in data set [5] it was “Active”; in data set [6], “Not Active”. The figures for the “inhibition (INH)” value in data set [7] and in data set [10] were “Not Active” and “Active”, respectively. The concentration for half-maximal inhibition (IC50) in the data set on HepG2 was 1210 nM. Besides, the outcome (in the data set on NCI/ADR-RES [8]; in data set [9]) was Active.
For the molecule `COC(=O)c1cc(OC)c2c(c1-c1c(C(=O)NCCC(=O)OCCCOc3no[n+]([O-])c3S(=O)(=O)c3ccccc3)cc(OC)c3c1OCO3)OCO2`, in the data set with HepG2, the IC50 turned out to be 1140 nM.
The same measure, in the same setting: as for `COC(=O)c1cc(OC)c2c(c1-c1c(C(=O)N[C@@H](C)C(=O)OCCCOc3no[n+]([O-])c3S(=O)(=O)c3ccccc3)cc(OC)c3c1OCO3)OCO2`, the figure is 1250 nM.
Consider `COC(=O)c1cc(OC)c2c(c1-c1c(C(=O)N[C@@H](C)C(=O)OCCOCCOc3no[n+]([O-])c3S(=O)(=O)c3ccccc3)cc(OC)c3c1OCO3)OCO2`, for which the result in the data set on MCF7 and in the data set with NCI/ADR-RES [11] was inactive. Moreover, the “inhibition (INH)” value in data set [1] is “Not Active”; in data set [2] it was “Dose-dependent effect”; in data set [3], “Not Active”; in [4], “Active”; in data set [5], “Active”; in data set [6], “Not Active”. The “inhibition (INH)” value in data set [7] was “Not Active”; in data set [10], “Active”. This molecule gave an IC50 with HepG2 of 1490 nM. Moreover, the result (in the data set on NCI/ADR-RES [8]; in [9]) was Active.
In turn, `COC(=O)c1cc(OC)c2c(c1-c1c(C(=O)NCCC(=O)OCCCCOc3no[n+]([O-])c3S(=O)(=O)c3ccccc3)cc(OC)c3c1OCO3)OCO2` returned an IC50 in the data set with HepG2 of 1360 nM.
For the molecule `C[C@H](N)C(=O)OCCOCCOc1no[n+]([O-])c1S(=O)(=O)c1ccccc1`, the “inhibition (INH)” value in data set [5] is “Active”.
Consider `COC(=O)c1cc(OC)c2c(c1-c1c(C(=O)NCCC(=O)OC(C)CCOc3no[n+]([O-])c3S(=O)(=O)c3ccccc3)cc(OC)c3c1OCO3)OCO2` (configuration not stated), for which inhibition with HepG2 was half-maximal at 1150 nM (IC50).
On the same count and under the same terms, as for `COC(=O)c1cc(OC)c2c(c1-c1c(C(=O)NCCC(=O)OCCOc3no[n+]([O-])c3S(=O)(=O)c3ccccc3)cc(OC)c3c1OCO3)OCO2`, the figure is 1350 nM; as for `COC(=O)c1cc(OC)c2c(c1-c1c(C(=O)NCCC(=O)OCCOCCOc3no[n+]([O-])c3S(=O)(=O)c3ccccc3)cc(OC)c3c1OCO3)OCO2`, 1880 nM; as for `O=c1[nH]cc(F)c(=O)[nH]1` [FLUOROURACIL], 15900 nM.
In the data set on HepG2, `COC(=O)c1cc(OC)c2c(c1-c1c(C(=O)NCCC(=O)OC(C)(C)CCOc3no[n+]([O-])c3S(=O)(=O)c3ccccc3)cc(OC)c3c1OCO3)OCO2` gave an IC50 of 1360 nM.
On to `C[C@H](N)C(=O)OCCCCOc1no[n+]([O-])c1S(=O)(=O)c1ccccc1`, for which, in data set [5], the “inhibition (INH)” value is reported as “Active”.
